Test results taken from ChEMBL document CHEMBL1201862, “PubChem BioAssay data set” (2004).
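Compound exposure: 48 hours, 5 concentrations, 96-well plates. At the GI50, growth is halved.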 Activity calls are given as the source filed them. Cut-off read from the data, not from the text of the source: active = GI50 up to about 1.1 µM and inactive = higher.

Legend:
Assay in all cases: NCI anticancer screen, dose series, 48 h
786-0 = system: 786-0
OVCAR-5 = system: OVCAR-5
UACC-62 = system: UACC-62
HCT-116 = system: HCT-116
HL-60 = system: HL-60
COLO 205 = system: COLO 205
MDA-MB-435 = system: MDA-MB-435
HOP-62 = system: HOP-62
NCI-H226 = system: NCI-H226
SK-MEL-2 = system: SK-MEL-2
CCRF-CEM = system: CCRF-CEM
RPMI-8226 = system: RPMI-8226
Hs-578T = system: Hs-578T
T47D = system: T47D
EKVX = system: EKVX
MDA-MB-231 = system: MDA-MB-231
HOP-92 = system: HOP-92
BT-549 = system: BT-549
SNB-19 = system: SNB-19

Measured: GI50

NC(=O)N/N=C(/CC1C(=O)Oc2ccccc21)c1ccccc1O (stereo unspecified)
inactive: 786-0 33.4 µM | OVCAR-5 > 100 µM | UACC-62 19.1 µM | HCT-116 29.6 µM | HL-60 19.6 µM | COLO 205 98.2 µM | MDA-MB-435 43.8 µM | HOP-62 29 µM | NCI-H226 24.4 µM | SK-MEL-2 > 100 µM | CCRF-CEM 22.4 µM | RPMI-8226 14.1 µM | Hs-578T > 100 µM | T47D 19.5 µM | EKVX 87.5 µM | MDA-MB-231 > 100 µM | HOP-92 29.8 µM | BT-549 24.2 µM | SNB-19 60 µM

C[N+](C)(C)CCCSc1nc2ccccc2[nH]1
inactive: 786-0 > 100 µM | OVCAR-5 89.7 µM | UACC-62 > 100 µM | HCT-116 > 100 µM | HL-60 > 100 µM | COLO 205 > 100 µM | MDA-MB-435 > 100 µM | HOP-62 > 100 µM | NCI-H226 > 100 µM | SK-MEL-2 > 100 µM | CCRF-CEM > 100 µM | RPMI-8226 > 100 µM | Hs-578T > 100 µM | T47D > 100 µM | EKVX > 100 µM | MDA-MB-231 > 100 µM | HOP-92 > 100 µM | BT-549 > 100 µM | SNB-19 > 100 µM

CCC1=C(C=O)c2cc3[nH]c(cc4nc(c5c6[nH]c(cc1n2)c(C)c6C(=O)C5C(=O)OC)C(CCC(=O)OC)C4C)c(C)c3CC (stereo unspecified)
inactive: 786-0 > 100 µM | OVCAR-5 > 100 µM | UACC-62 > 100 µM | HCT-116 > 100 µM | HL-60 > 100 µM | COLO 205 > 100 µM | MDA-MB-435 > 100 µM | HOP-62 > 100 µM | NCI-H226 > 100 µM | SK-MEL-2 > 100 µM | CCRF-CEM > 100 µM | RPMI-8226 > 100 µM | Hs-578T 88.1 µM | T47D > 100 µM | EKVX > 100 µM | MDA-MB-231 > 100 µM | HOP-92 > 100 µM | BT-549 > 100 µM | SNB-19 > 100 µM

O=C1N/C(=N/N=C\c2ccccc2)N/C1=C/c1ccccc1
inactive: 786-0 33.6 µM | OVCAR-5 21.6 µM | HCT-116 34.6 µM | HL-60 34 µM | COLO 205 68.5 µM | MDA-MB-435 17.1 µM | HOP-62 19.5 µM | NCI-H226 14.8 µM | SK-MEL-2 27.6 µM | CCRF-CEM 23.2 µM | RPMI-8226 26.6 µM | Hs-578T 27.3 µM | T47D 30.3 µM | EKVX 23.8 µM | MDA-MB-231 47 µM | HOP-92 22.2 µM | BT-549 22.9 µM | SNB-19 21.6 µM

CCOC(=O)CCC(NC(=O)c1ccc(Oc2nc3ccccc3nc2C(=O)OCC)cc1)C(=O)OCC (stereo unspecified)
inactive: 786-0 37.2 µM | OVCAR-5 > 100 µM | UACC-62 > 100 µM | HCT-116 72.3 µM | HL-60 > 100 µM | COLO 205 > 100 µM | MDA-MB-435 > 100 µM | HOP-62 63 µM | SK-MEL-2 > 100 µM | CCRF-CEM > 100 µM | RPMI-8226 > 100 µM | Hs-578T > 100 µM | T47D > 100 µM | EKVX > 100 µM | MDA-MB-231 40.4 µM | HOP-92 > 100 µM | BT-549 > 100 µM | SNB-19 85.5 µM

COc1cc(OC)c(OC)cc1/C=C/c1cnnc2ccccc12
inactive: 786-0 > 10 µM | OVCAR-5 > 10 µM | UACC-62 > 10 µM | HCT-116 > 10 µM | HL-60 > 10 µM | COLO 205 > 10 µM | MDA-MB-435 1.84 µM | HOP-62 > 10 µM | NCI-H226 > 10 µM | SK-MEL-2 > 10 µM | CCRF-CEM > 10 µM | RPMI-8226 > 10 µM | Hs-578T > 10 µM | T47D > 10 µM | EKVX > 10 µM | MDA-MB-231 > 10 µM | HOP-92 > 10 µM | BT-549 > 10 µM | SNB-19 > 10 µM

COc1ccc(-c2cn3c(nc4ccccc43)c(C)n2)cc1
inactive: 786-0 41 µM | OVCAR-5 > 78.5 µM | UACC-62 35.3 µM | HCT-116 85.1 µM | HL-60 > 56.1 µM | COLO 205 > 100 µM | MDA-MB-435 > 96.2 µM | HOP-62 31.8 µM | NCI-H226 > 68.5 µM | SK-MEL-2 44.9 µM | CCRF-CEM > 100 µM | RPMI-8226 > 75.9 µM | Hs-578T 41.6 µM | T47D 8.3 µM | EKVX 83 µM | MDA-MB-231 > 100 µM | HOP-92 21.7 µM | BT-549 33.7 µM | SNB-19 44.9 µM
